Starred links: 1 amine or outer side, 2 acyl side, 3 side chain; linkers in the order of their positions; H or OH if unused. Non-standard residues stand in square brackets, D forms with d. Residues, ends and D or L forms follow the SMILES beside them. Groups on a side chain read outwards from the residue. *: point of attachment. C20 diacid = O=C(O)CCCCCCCCCCCCCCCCCCC(=O)*; C18 diacid = O=C(O)CCCCCCCCCCCCCCCCC(=O)*; γGlu = O=C(O)[C@H](CCC(=O)[*:2])N[*:1]; αMeF = C[C@](N)(Cc1ccccc1)C(=O)O; PEG4 = NCCOCCOCCOCCOCCC(=O)O; PEG2 = NCCOCCOCCC(=O)O; AEEA = NCCOCCOCC(=O)O; Aib = CC(C)(N)C(=O)O
Columns and labels:
[1] = biological target: human GLP-1 receptor (hGLP-1R) (Homo sapiens, UniProt P43220); experiment: cAMP production (HTRF) in CHO cells expressing hGLP-1R; assay type: cell-based; design: expressed in transfected cells; settings: for EC50: Table 7, peptides modified at position 20, cAMP in CHO hGLP-1R cells, geometric mean, read-out: hGLP-1R EC50; for % Relative Potency Ratio: Table 7, % GLP-1R activity relative to GLP-1 / % GlucR activity relative to glucagon
Sequence of human GLP-1 receptor (hGLP-1R) (P43220 24-463): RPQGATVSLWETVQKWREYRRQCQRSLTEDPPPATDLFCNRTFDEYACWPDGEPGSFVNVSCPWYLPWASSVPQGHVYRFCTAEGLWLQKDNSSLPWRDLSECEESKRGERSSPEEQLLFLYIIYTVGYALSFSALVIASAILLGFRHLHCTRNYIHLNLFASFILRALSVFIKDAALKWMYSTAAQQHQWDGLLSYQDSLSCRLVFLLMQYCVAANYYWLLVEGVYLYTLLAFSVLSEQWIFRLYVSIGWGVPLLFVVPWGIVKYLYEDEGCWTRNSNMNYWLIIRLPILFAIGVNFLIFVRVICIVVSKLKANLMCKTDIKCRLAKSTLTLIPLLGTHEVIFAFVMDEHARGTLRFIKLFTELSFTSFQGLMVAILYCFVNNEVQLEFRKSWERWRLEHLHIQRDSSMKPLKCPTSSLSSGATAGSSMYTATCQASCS
Procedure, shortened: (§1)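 Cells were resuspended in assay buffer at batch-optimized density, typically 1×10^5 cells/mL for hGLP-1R and 2×10^5 cells/mL for hGCGR. After 30 min incubation at room temperature with compound, cAMP was measured by two-step HTRF. EC50 values came from 4-parameter logistic fits of % Delta F.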

[2] = biological target: human glucagon receptor (hGCGR) (Homo sapiens, UniProt P47871); experiment: cAMP production (HTRF) in CHO cells expressing hGCGR; assay type: cell-based; design: expressed in transfected cells; settings: Table 7, peptides modified at position 20; cAMP in CHO hGCGR cells; geometric mean; read-out: hGluc-R EC50
Sequence of human glucagon receptor (hGCGR) (P47871 26-477): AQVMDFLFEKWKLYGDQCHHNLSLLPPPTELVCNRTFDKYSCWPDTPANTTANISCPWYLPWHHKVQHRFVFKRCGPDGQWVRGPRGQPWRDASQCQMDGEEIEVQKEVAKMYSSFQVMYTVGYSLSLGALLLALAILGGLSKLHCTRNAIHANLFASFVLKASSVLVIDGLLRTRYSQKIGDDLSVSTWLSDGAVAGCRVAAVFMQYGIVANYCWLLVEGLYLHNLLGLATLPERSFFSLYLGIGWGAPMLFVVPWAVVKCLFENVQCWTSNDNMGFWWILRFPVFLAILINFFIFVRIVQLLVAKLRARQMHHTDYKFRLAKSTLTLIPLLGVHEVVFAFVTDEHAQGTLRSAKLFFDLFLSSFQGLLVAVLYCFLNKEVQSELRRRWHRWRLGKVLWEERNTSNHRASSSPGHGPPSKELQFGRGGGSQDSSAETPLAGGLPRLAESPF
Procedure, shortened: as §1

Row | Structure (SMILES) | EC50 [1] [pM] | % Relative Potency Ratio [1] | EC50 [2] [pM]
1 | CC[C@H](C)[C@H](NC(=O)C(C)(C)NC(=O)[C@H](CCC(N)=O)NC(=O)[C@@H](NC(=O)[C@](C)(Cc1ccccc1)NC(=O)[C@H](CC(=O)O)NC(=O)[C@H](CCCCNC(=O)CCOCCOCCOCCOCCNC(=O)CC[C@H](NC(=O)CC[C@H](NC(=O)CCCCCCCCCCCCCCCCC(=O)O)C(=O)O)C(=O)O)NC(=O)[C@H](C)NC(=O)[C@H](C)NC(=O)[C@H](CCCNC(=N)N)NC(=O)[C@H](CO)NC(=O)[C@H](CC(=O)O)NC(=O)[C@H](CC(C)C)NC(=O)[C@](C)(Cc1ccccc1)NC(=O)[C@H](CCCCN)NC(=O)[C@H](CO)NC(=O)[C@@H](NC(=O)[C@H](CC(=O)O)NC(=O)[C@H](CO)NC(=O)[C@@H](NC(=O)[C@](C)(Cc1ccccc1)NC(=O)[C@H](CO)NC(=O)CNC(=O)[C@H](Cc1c[nH]cn1)NC(=O)C(C)(C)NC(=O)[C@@H](N)Cc1c[nH]cn1)[C@@H](C)O)C(C)C)C(C)C)C(=O)N[C@@H](C)C(=O)N[C@@H](CC(N)=O)C(=O)N[C@H](C(N)=O)[C@@H](C)O [Peptide 263] (H-H[Aib]HGS[αMeF]TSDVSK[αMeF]LDSRAAK([PEG4-γGlu-γGlu-C18 diacid])D[αMeF]VQ[Aib]IANT-NH2) | 25.4 | – | 64.6
2 | CC[C@H](C)[C@H](NC(=O)C(C)(C)NC(=O)[C@H](CCC(N)=O)NC(=O)[C@@H](NC(=O)[C@](C)(Cc1ccccc1)NC(=O)[C@H](CC(=O)O)NC(=O)[C@H](CCCCNC(=O)CCOCCOCCNC(=O)CCOCCOCCNC(=O)CC[C@H](NC(=O)CC[C@H](NC(=O)CCCCCCCCCCCCCCCCCCC(=O)O)C(=O)O)C(=O)O)NC(=O)[C@H](C)NC(=O)[C@H](C)NC(=O)[C@H](CCCNC(=N)N)NC(=O)[C@H](CO)NC(=O)[C@H](CC(=O)O)NC(=O)[C@H](CC(C)C)NC(=O)[C@](C)(Cc1ccccc1)NC(=O)[C@H](CCCCN)NC(=O)[C@H](CO)NC(=O)[C@@H](NC(=O)[C@H](CC(=O)O)NC(=O)[C@H](CO)NC(=O)[C@@H](NC(=O)[C@](C)(Cc1ccccc1)NC(=O)[C@H](CO)NC(=O)CNC(=O)[C@H](Cc1c[nH]cn1)NC(=O)C(C)(C)NC(=O)[C@@H](N)Cc1c[nH]cn1)[C@@H](C)O)C(C)C)C(C)C)C(=O)N[C@@H](C)C(=O)N[C@@H](CC(N)=O)C(=O)N[C@H](C(N)=O)[C@@H](C)O [Peptide 264] (H-H[Aib]HGS[αMeF]TSDVSK[αMeF]LDSRAAK([PEG2-PEG2-γGlu-γGlu-C20 diacid])D[αMeF]VQ[Aib]IANT-NH2) | 69.5 | 8.5 | 297
3 | CC[C@H](C)[C@H](NC(=O)C(C)(C)NC(=O)[C@H](CCC(N)=O)NC(=O)[C@@H](NC(=O)[C@](C)(Cc1ccccc1)NC(=O)[C@H](CC(=O)O)NC(=O)[C@H](CCCCNC(=O)COCCOCCNC(=O)CC[C@H](NC(=O)COCCOCCNC(=O)CCCCCCCCCCCCCCCCCCC(=O)O)C(=O)O)NC(=O)[C@H](C)NC(=O)[C@H](C)NC(=O)[C@H](CCCNC(=N)N)NC(=O)[C@H](CO)NC(=O)[C@H](CC(=O)O)NC(=O)[C@H](CC(C)C)NC(=O)[C@](C)(Cc1ccccc1)NC(=O)[C@H](CCCCN)NC(=O)[C@H](CO)NC(=O)[C@@H](NC(=O)[C@H](CC(=O)O)NC(=O)[C@H](CO)NC(=O)[C@@H](NC(=O)[C@](C)(Cc1ccccc1)NC(=O)[C@H](CO)NC(=O)CNC(=O)[C@H](Cc1c[nH]cn1)NC(=O)C(C)(C)NC(=O)[C@@H](N)Cc1c[nH]cn1)[C@@H](C)O)C(C)C)C(C)C)C(=O)N[C@@H](C)C(=O)N[C@@H](CC(N)=O)C(=O)N[C@H](C(N)=O)[C@@H](C)O [Peptide 265] (H-H[Aib]HGS[αMeF]TSDVSK[αMeF]LDSRAAK([AEEA-γGlu-AEEA-C20 diacid])D[αMeF]VQ[Aib]IANT-NH2) | 71.2 | 3.6 | 131
4 | CC[C@H](C)[C@H](NC(=O)C(C)(C)NC(=O)[C@H](CCC(N)=O)NC(=O)[C@@H](NC(=O)[C@](C)(Cc1ccccc1)NC(=O)[C@H](CC(=O)O)NC(=O)[C@H](CCCCNC(=O)COCCOCCNC(=O)CC[C@H](NC(=O)COCCOCCNC(=O)CC[C@H](NC(=O)CCCCCCCCCCCCCCCCCCC(=O)O)C(=O)O)C(=O)O)NC(=O)[C@H](C)NC(=O)[C@H](C)NC(=O)[C@H](CCCNC(=N)N)NC(=O)[C@H](CO)NC(=O)[C@H](CC(=O)O)NC(=O)[C@H](CC(C)C)NC(=O)[C@](C)(Cc1ccccc1)NC(=O)[C@H](CCCCN)NC(=O)[C@H](CO)NC(=O)[C@@H](NC(=O)[C@H](CC(=O)O)NC(=O)[C@H](CO)NC(=O)[C@@H](NC(=O)[C@](C)(Cc1ccccc1)NC(=O)[C@H](CO)NC(=O)CNC(=O)[C@H](Cc1c[nH]cn1)NC(=O)C(C)(C)NC(=O)[C@@H](N)Cc1c[nH]cn1)[C@@H](C)O)C(C)C)C(C)C)C(=O)N[C@@H](C)C(=O)N[C@@H](CC(N)=O)C(=O)N[C@H](C(N)=O)[C@@H](C)O [Peptide 266] (H-H[Aib]HGS[αMeF]TSDVSK[αMeF]LDSRAAK([AEEA-γGlu-AEEA-γGlu-C20 diacid])D[αMeF]VQ[Aib]IANT-NH2) | 66.5 | 8.7 | 293
5 | CC[C@H](C)[C@H](NC(=O)C(C)(C)NC(=O)[C@H](CCC(N)=O)NC(=O)[C@@H](NC(=O)[C@](C)(Cc1ccccc1)NC(=O)[C@H](CC(=O)O)NC(=O)[C@H](CCCCNC(=O)CCOCCOCCOCCOCCNC(=O)CC[C@H](NC(=O)CCCCCCCCCCCCCCCCCCC(=O)O)C(=O)O)NC(=O)[C@H](C)NC(=O)[C@H](C)NC(=O)[C@H](CCCNC(=N)N)NC(=O)[C@H](CO)NC(=O)[C@H](CC(=O)O)NC(=O)[C@H](CC(C)C)NC(=O)[C@](C)(Cc1ccccc1)NC(=O)[C@H](CCCCN)NC(=O)[C@H](CO)NC(=O)[C@@H](NC(=O)[C@H](CC(=O)O)NC(=O)[C@H](CO)NC(=O)[C@@H](NC(=O)[C@](C)(Cc1ccccc1)NC(=O)[C@H](CO)NC(=O)CNC(=O)[C@H](Cc1c[nH]cn1)NC(=O)C(C)(C)NC(=O)[C@@H](N)Cc1c[nH]cn1)[C@@H](C)O)C(C)C)C(C)C)C(=O)N[C@@H](C)C(=O)N[C@@H](CC(N)=O)C(=O)N[C@H](C(N)=O)[C@@H](C)O [Peptide 267] (H-H[Aib]HGS[αMeF]TSDVSK[αMeF]LDSRAAK([PEG4-γGlu-C20 diacid])D[αMeF]VQ[Aib]IANT-NH2) | 65.6 | 3.9 | 128

The next lines start with the values.

Row | EC50 [1] [pM] | % Relative Potency Ratio [1] | EC50 [2] [pM] | Structure (SMILES)
6 | 16.2 | 3.6 | 29.4 | CC[C@H](C)[C@H](NC(=O)C(C)(C)NC(=O)[C@H](CCC(N)=O)NC(=O)[C@@H](NC(=O)[C@](C)(Cc1ccccc1)NC(=O)[C@H](CC(=O)O)NC(=O)[C@H](CCCCNC(=O)CCOCCOCCOCCOCCNC(=O)CC[C@H](NC(=O)CCCCCCCCCCCCCCCCC(=O)O)C(=O)O)NC(=O)[C@H](C)NC(=O)[C@H](C)NC(=O)[C@H](CCCNC(=N)N)NC(=O)[C@H](CO)NC(=O)[C@H](CC(=O)O)NC(=O)[C@H](CC(C)C)NC(=O)[C@](C)(Cc1ccccc1)NC(=O)[C@H](CCCCN)NC(=O)[C@H](CO)NC(=O)[C@@H](NC(=O)[C@H](CC(=O)O)NC(=O)[C@H](CO)NC(=O)[C@@H](NC(=O)[C@](C)(Cc1ccccc1)NC(=O)[C@H](CO)NC(=O)CNC(=O)[C@H](Cc1c[nH]cn1)NC(=O)C(C)(C)NC(=O)[C@@H](N)Cc1c[nH]cn1)[C@@H](C)O)C(C)C)C(C)C)C(=O)N[C@@H](C)C(=O)N[C@@H](CC(N)=O)C(=O)N[C@H](C(N)=O)[C@@H](C)O [Peptide 261] (H-H[Aib]HGS[αMeF]TSDVSK[αMeF]LDSRAAK([PEG4-γGlu-C18 diacid])D[αMeF]VQ[Aib]IANT-NH2; N-terminus assumed)
7 | 13 | 1.8 | 11.7 | CC[C@H](C)[C@H](NC(=O)C(C)(C)NC(=O)[C@H](CCC(N)=O)NC(=O)[C@@H](NC(=O)[C@](C)(Cc1ccccc1)NC(=O)[C@H](CC(=O)O)NC(=O)[C@H](CCCCNC(=O)COCCOCCNC(=O)CC[C@H](NC(=O)CCCCCCCCCCCCCCCCC(=O)O)C(=O)O)NC(=O)[C@H](C)NC(=O)[C@H](C)NC(=O)[C@H](CCCNC(=N)N)NC(=O)[C@H](CO)NC(=O)[C@H](CC(=O)O)NC(=O)[C@H](CC(C)C)NC(=O)[C@](C)(Cc1ccccc1)NC(=O)[C@H](CCCCN)NC(=O)[C@H](CO)NC(=O)[C@@H](NC(=O)[C@H](CC(=O)O)NC(=O)[C@H](CO)NC(=O)[C@@H](NC(=O)[C@](C)(Cc1ccccc1)NC(=O)[C@H](CO)NC(=O)CNC(=O)[C@H](Cc1c[nH]cn1)NC(=O)C(C)(C)NC(=O)[C@@H](N)Cc1c[nH]cn1)[C@@H](C)O)C(C)C)C(C)C)C(=O)N[C@@H](C)C(=O)N[C@@H](CC(N)=O)C(=O)N[C@H](C(N)=O)[C@@H](C)O [Peptide 262] (H-H[Aib]HGS[αMeF]TSDVSK[αMeF]LDSRAAK([AEEA-γGlu-C18 diacid])D[αMeF]VQ[Aib]IANT-NH2)
8 | 39.5 | 1.5 | 29.3 | CC[C@H](C)[C@H](NC(=O)C(C)(C)NC(=O)[C@H](CCC(N)=O)NC(=O)[C@@H](NC(=O)[C@](C)(Cc1ccccc1)NC(=O)[C@H](CC(=O)O)NC(=O)[C@H](CCCCNC(=O)COCCOCCNC(=O)CC[C@H](NC(=O)CCCCCCCCCCCCCCCCCCC(=O)O)C(=O)O)NC(=O)[C@H](C)NC(=O)[C@H](C)NC(=O)[C@H](CCCNC(=N)N)NC(=O)[C@H](CO)NC(=O)[C@H](CC(=O)O)NC(=O)[C@H](CC(C)C)NC(=O)[C@](C)(Cc1ccccc1)NC(=O)[C@H](CCCCN)NC(=O)[C@H](CO)NC(=O)[C@@H](NC(=O)[C@H](CC(=O)O)NC(=O)[C@H](CO)NC(=O)[C@@H](NC(=O)[C@](C)(Cc1ccccc1)NC(=O)[C@H](CO)NC(=O)CNC(=O)[C@H](Cc1c[nH]cn1)NC(=O)C(C)(C)NC(=O)[C@@H](N)Cc1c[nH]cn1)[C@@H](C)O)C(C)C)C(C)C)C(=O)N[C@@H](C)C(=O)N[C@@H](CC(N)=O)C(=O)N[C@H](C(N)=O)[C@@H](C)O [Peptide 268] (H-H[Aib]HGS[αMeF]TSDVSK[αMeF]LDSRAAK([AEEA-γGlu-C20 diacid])D[αMeF]VQ[Aib]IANT-NH2; N-terminus assumed)

From patent publication US20250353891A1 (MEDIMMUNE LIMITED, priority 2022, published 2025)
